The structures appear in SMILES notation. ≈ marks a conversion by molar mass, not a printed value.

Holding throughout (assay type): cell-based
For assay [1], the system named is P. aeruginosa (ΔmexAB-oprM). Briefly: Broth microdilution MIC in CAMHB. Conditions: Pseudomonas aeruginosa, read-out: Minimum Inhibitory Concentration, P. aeruginosa ΔmexAB-OprM. A digest of the protocol: (§1)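 MIC, read by eye, is the lowest compound concentration giving no bacterial growth after 16-20 h at 37° C. Test compounds are serially diluted 2-fold in CAMHB and seeded with 2-8×10^5 CFU/mL of bacteria taken from a 3-5 h shaking culture, following CLSI methods.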
A general note: Dilution methods test growth across graded concentrations, often in twofold steps.

Another assay relates to E. coli AG100. The assay is described as follows: Broth microdilution MIC in CAMHB. Conditions: Escherichia coli; E. coli AG100 (wild-type parent); MHB; read-out: Minimum Inhibitory Concentration, E. coli AG100. A digest of the protocol:
as §1

For another assay, the system named is E. coli AG100A. Briefly: Broth microdilution MIC in CAMHB. Conditions: Escherichia coli, read-out: Minimum Inhibitory Concentration, E. coli AG100A. A digest of the protocol: as §1
For assay [2], the system named is K. pneumoniae 848844 producing SHV-11 and KPC-2. Briefly: Broth microdilution MIC in CAMHB. Conditions: Klebsiella pneumoniae, read-out: Minimum Inhibitory Concentration, K. pneumoniae 848844. A digest of the protocol: as §1
The subject of another assay is E. coli ATCC 25922. The assay is described as follows: Broth microdilution MIC in CAMHB. Conditions: Escherichia coli, ATCC25922; E. coli ATCC 25922; MHB; read-out: Minimum Inhibitory Concentration, E. coli 25922. A digest of the protocol: as §1
The next assay deals with A. baumannii ATCC 19606. Briefly: Broth microdilution MIC in CAMHB. Conditions: Acinetobacter baumannii, ATCC19606; MHB; read-out: Minimum Inhibitory Concentration, A. baumannii ATCC 19606. In short, it runs like this:
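Lowest compound concentration with no visible growth after 16-20 h at 37 °C defines MIC. Plates of 2-fold serial dilutions in cation-adjusted Mueller Hinton broth received 2-8×10^5 CFU/mL of exponentially grown cells, per CLSI methods; panel spans reference, hyper-permeable and efflux-pump-deleted strains.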

For a further assay, the system named is E. coli D22. The assay is described as follows: Broth microdilution MIC in CAMHB. Conditions: Escherichia coli; E. coli D22 (hyper-permeable); MHB; read-out: Minimum Inhibitory Concentration, E. coli D22. In short, it runs like this:
as §1

Assay [3] relates to K. pneumoniae UMM producing SHV-5 and KPC-2. Briefly: Broth microdilution MIC in CAMHB. The following applies: Klebsiella pneumoniae, read-out: Minimum Inhibitory Concentration, K. pneumoniae UMM. In short, it runs like this:
as §1

Assay [4] concerns K. pneumoniae SI-117 producing VIM-1. Briefly: Broth microdilution MIC in CAMHB. The following applies: Klebsiella pneumoniae, read-out: Minimum Inhibitory Concentration, K. pneumoniae SI-117. In short, it runs like this: as §1
Another assay relates to P. aeruginosa ATCC 35151. Briefly: Broth microdilution MIC in CAMHB. The following applies: Pseudomonas aeruginosa, ATCC35151; MHB; hyper-permeable strain; read-out: Minimum Inhibitory Concentration, P. aeruginosa ATCC 35151. A digest of the protocol: as §1
For the next assay, the system named is P. aeruginosa ATCC 27853. The assay is described as follows: Broth microdilution MIC in CAMHB. Conditions: Pseudomonas aeruginosa, ATCC27853; MHB; read-out: Minimum Inhibitory Concentration, P. aeruginosa ATCC 27853. A digest of the protocol: as §1
The subject of another assay is E. coli 901C. Briefly: Broth microdilution MIC in CAMHB. The following applies: Escherichia coli; E. coli 901C (hyper-permeable); MHB; read-out: Minimum Inhibitory Concentration, E. coli 901C. A digest of the protocol:
as §1

The next assay deals with N. gonorrhoeae WHO L. Briefly: Liquid broth MIC in Fastidious broth. The following applies: Neisseria gonorrhoeae; N. gonorrhoeae strain WHO L; Fastidious broth; read-out: Minimum Inhibitory Concentration, N. gonorrhoeae WHO L. In short, it runs like this:
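Colonies were swabbed from chocolate agar after 24 h growth and standardised by optical density at 600 nm. Compounds were serially diluted twofold in Fastidious broth, and bacteria added to give 5×10^5 CFU/mL. After about 24 h at 36 °C in 5% CO2, the lowest concentration allowing under 10% growth was taken as MIC.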

`O=C(O)c1cccc2c1OB(O)[C@@H](NC(=O)C(NC(=O)N1CCN(CCF)C(=O)C1=O)c1c(F)cc(O)cc1F)C2` (mixture of isomers) [Example 119, (3R)-3-(2-(2,6-difluoro-4-hydroxyphenyl)-2-(4-(2-fluoroethyl)-2,3-dioxopiperazine-1-carboxamido)acetamido)-2-hydroxy-3,4-dihydro-2H-benzo[e][1,2]oxaborinine-8-carboxylic acid]: the MIC in assay [1] is 8 to 16 µg/mL (≈ 13.8 to 27.7 µM); in the assay on E. coli AG100, 8 to 16 µg/mL (≈ 13.8 to 27.7 µM); with E. coli AG100A, 0.5 to 1 µg/mL (≈ 0.865 to 1.73 µM); in assay [2], 32 to 64 µg/mL (≈ 55.3 to 111 µM); in the assay on E. coli ATCC 25922, 8 to 16 µg/mL (≈ 13.8 to 27.7 µM); in the assay with A. baumannii ATCC 19606 it was > 128 µg/mL. The MIC is 0.5 to 1 µg/mL (≈ 0.865 to 1.73 µM) with E. coli D22; 8 to 16 µg/mL (≈ 13.8 to 27.7 µM) in [3]; 32 to 64 µg/mL (≈ 55.3 to 111 µM) in assay [4]; 2 to 4 µg/mL (≈ 3.46 to 6.92 µM) in the assay on P. aeruginosa ATCC 35151; > 128 µg/mL with P. aeruginosa ATCC 27853; < 0.25 µg/mL in the assay on E. coli 901C. The MIC in the assay with N. gonorrhoeae WHO L was in the range of 16 to 32 µg/mL (≈ 27.7 to 55.3 µM).

As for `NCCN1CCN(C(=O)N[C@H](C(=O)N[C@H]2Cc3cccc(C(=O)O)c3OB2O)c2c(F)cc(O)cc2F)C(=O)C1=O` (single isomer, unassigned) [Example 110], the MIC in assay [1] is 32 to 64 µg/mL (≈ 55.6 to 111 µM); in the assay on E. coli AG100, > 128 µg/mL; in the assay with E. coli AG100A, 8 to 16 µg/mL (≈ 13.9 to 27.8 µM); in assay [2] it was > 128 µg/mL; in the assay on E. coli ATCC 25922 it was > 128 µg/mL; in the assay with A. baumannii ATCC 19606, > 128 µg/mL. Besides, the MIC in the assay on E. coli D22 is 32 to 64 µg/mL (≈ 55.6 to 111 µM); in [3] it was > 128 µg/mL; in assay [4], > 128 µg/mL; in the assay on P. aeruginosa ATCC 35151, 8 to 16 µg/mL (≈ 13.9 to 27.8 µM); in the assay on P. aeruginosa ATCC 27853 it was > 128 µg/mL; in the assay with E. coli 901C, 8 to 16 µg/mL (≈ 13.9 to 27.8 µM). The MIC in the assay on N. gonorrhoeae WHO L is > 64 µg/mL.

As to `NCCN1CCN(C(=O)N[C@@H](C(=O)N[C@H]2Cc3cccc(C(=O)O)c3OB2O)c2c(F)cc(O)cc2F)C(=O)C1=O` (single isomer, unassigned) [Example 111], the MIC in [1] is 8 to 16 µg/mL (≈ 13.9 to 27.8 µM); in the assay with E. coli AG100, 8 to 16 µg/mL (≈ 13.9 to 27.8 µM); with E. coli AG100A, 0.5 to 1 µg/mL (≈ 0.869 to 1.74 µM); in assay [2], 8 to 16 µg/mL (≈ 13.9 to 27.8 µM); with E. coli ATCC 25922, 8 to 16 µg/mL (≈ 13.9 to 27.8 µM); in the assay with A. baumannii ATCC 19606, > 128 µg/mL. Further, the MIC is 2 to 4 µg/mL (≈ 3.48 to 6.95 µM) with E. coli D22; 8 to 16 µg/mL (≈ 13.9 to 27.8 µM) in [3]; 8 to 16 µg/mL (≈ 13.9 to 27.8 µM) in assay [4]; 0.5 to 1 µg/mL (≈ 0.869 to 1.74 µM) with P. aeruginosa ATCC 35151; > 128 µg/mL in the assay with P. aeruginosa ATCC 27853; 0.5 to 1 µg/mL (≈ 0.869 to 1.74 µM) in the assay with E. coli 901C. Further, the MIC in the assay with N. gonorrhoeae WHO L was > 64 µg/mL.

On to `NCCN1CCN(C(=O)N[C@@H](C(=O)N[C@H]2Cc3cccc(C(=O)O)c3OB2O)c2cccc(NS(N)(=O)=O)c2)C(=O)C1=O` (single isomer, unassigned) [Example 114], for which the MIC in assay [1] was 2 to 4 µg/mL (≈ 3.24 to 6.48 µM); with E. coli AG100 it was 32 to 64 µg/mL (≈ 51.8 to 104 µM); in the assay with E. coli AG100A, 2 to 4 µg/mL (≈ 3.24 to 6.48 µM); in assay [2], 32 to 64 µg/mL (≈ 51.8 to 104 µM); in the assay with E. coli ATCC 25922, 32 to 64 µg/mL (≈ 51.8 to 104 µM); with A. baumannii ATCC 19606, > 128 µg/mL. Moreover, the MIC in the assay on E. coli D22 is 8 to 16 µg/mL (≈ 13 to 25.9 µM); in [3], 32 to 64 µg/mL (≈ 51.8 to 104 µM); in assay [4], 32 to 64 µg/mL (≈ 51.8 to 104 µM); in the assay on P. aeruginosa ATCC 35151 it was 0.5 to 1 µg/mL (≈ 0.81 to 1.62 µM); in the assay with P. aeruginosa ATCC 27853, > 128 µg/mL; in the assay with E. coli 901C, 2 to 4 µg/mL (≈ 3.24 to 6.48 µM). Besides, the MIC in the assay on N. gonorrhoeae WHO L was > 64 µg/mL.

Turning to `NCCN1CCN(C(=O)N[C@H](C(=O)N[C@H]2Cc3cccc(C(=O)O)c3OB2O)c2cccc(NS(N)(=O)=O)c2)C(=O)C1=O` (single isomer, unassigned) [Example 115], the MIC in assay [1] was 8 to 16 µg/mL (≈ 13 to 25.9 µM); in the assay on E. coli AG100 it was > 128 µg/mL; in the assay with E. coli AG100A, 8 to 16 µg/mL (≈ 13 to 25.9 µM); in assay [2], > 128 µg/mL; with E. coli ATCC 25922, > 128 µg/mL; in the assay on A. baumannii ATCC 19606 it was > 128 µg/mL. Also, the MIC in the assay with E. coli D22 was 8 to 16 µg/mL (≈ 13 to 25.9 µM); in [3] it was > 128 µg/mL; in assay [4] it was > 128 µg/mL; in the assay with P. aeruginosa ATCC 35151, 2 to 4 µg/mL (≈ 3.24 to 6.48 µM); in the assay on P. aeruginosa ATCC 27853 it was > 128 µg/mL; in the assay on E. coli 901C, 2 to 4 µg/mL (≈ 3.24 to 6.48 µM). Besides, the MIC with N. gonorrhoeae WHO L was > 64 µg/mL.

Source of the values: patent US20230114728A1 (Venatorx Pharmaceuticals, Inc., priority 2019, published 2023).
